The values below come from patent US11724998B2, “PXR agonists and uses thereof for gut barrier dysfunction treatment and prevention” (Albert Einstein College of Medicine, priority 2017, dated 2023).

In data set [1] the test system is PXR target genes (CYP3A4, MDR1). The note with it: human.
Another data set has as its target T1, PXR (Homo sapiens, UniProt O75469).
T1 sequence (O75469 1-434): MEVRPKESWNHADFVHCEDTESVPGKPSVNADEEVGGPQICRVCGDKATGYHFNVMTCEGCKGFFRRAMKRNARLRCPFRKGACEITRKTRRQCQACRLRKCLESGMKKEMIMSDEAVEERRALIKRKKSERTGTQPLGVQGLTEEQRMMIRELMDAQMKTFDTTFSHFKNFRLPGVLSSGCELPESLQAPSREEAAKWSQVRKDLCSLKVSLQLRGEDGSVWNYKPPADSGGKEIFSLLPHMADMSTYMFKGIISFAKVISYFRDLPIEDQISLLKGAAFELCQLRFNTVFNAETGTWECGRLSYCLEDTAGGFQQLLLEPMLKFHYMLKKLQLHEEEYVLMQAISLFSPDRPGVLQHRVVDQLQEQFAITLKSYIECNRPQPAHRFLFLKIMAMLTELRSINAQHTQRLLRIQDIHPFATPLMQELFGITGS
Nature of the data set: PXR inhibition, LS180 cells, co-incubation with RIF. Conditions: FIG. 6A. Also noted: co-transfecting full-length expressing human PXR plasmid (91) and p3A4 luciferase reporter (92) in LS180 or Caco-2 cells; expressed in transfected cells; host or cells: LS180. The format is cell-based. How it is done: (§1) FIG. 6A-6E. Activation and inhibition studies with different FKK compounds. (A) PXR activation, LS180 cells (upper), and PXR inhibition, LS180 cells, co-incubation with RIF (lower). (B) AhR activation, AZ-AHR cells (upper), and AhR inhibition, AZ-AHR cells, co-incubation with TCDD (lower). (C) GR activation, AZ-GR cells (upper), and VDR activation, IZ-VDRE cells (lower). (D) TR activation, PZ-GR cells (upper), and AR activation, AIZ-AR cells (lower). (E) Displacement of radiolabeled 9-cis-retinoic acid (RA) by FKK compounds.
(§2) All the synthesized compounds and intermediates were tested for their potential to activate PXR and/or AhR via luciferase assays. The PXR activation assays were performed by co-transfecting full-length expressing human PXR plasmid (91) and p3A4 luciferase reporter (92) in LS180 or Caco-2 cells. AhR activation conducted using stably co-transfected HepG2 reporter cells as previously described (93). […] With the exception of FKK6, there was no significant inhibition of TCDD-induced AhR activation. […] Independent verification of AhR activity of randomly selected compounds—FKK 5, 6 and 9—was performed in a separate laboratory (GHP). Nuclear receptor selectivity was assessed for FKK compounds for GR, ADR, TR and AR using cell-based luciferase assays previously described (93-102). […]

The subject of another data set is RXR. Nature of the data set: RXR ligand displacement (radiolabeled 9-cis-retinoic acid). It is filed as binding. The note with it: displacement of radiolabeled 9-cis-retinoic acid. On the procedure: as §1, §2
Another data set concerns the target T2, AhR (Homo sapiens, UniProt P35869).
T2 sequence (P35869 11-848): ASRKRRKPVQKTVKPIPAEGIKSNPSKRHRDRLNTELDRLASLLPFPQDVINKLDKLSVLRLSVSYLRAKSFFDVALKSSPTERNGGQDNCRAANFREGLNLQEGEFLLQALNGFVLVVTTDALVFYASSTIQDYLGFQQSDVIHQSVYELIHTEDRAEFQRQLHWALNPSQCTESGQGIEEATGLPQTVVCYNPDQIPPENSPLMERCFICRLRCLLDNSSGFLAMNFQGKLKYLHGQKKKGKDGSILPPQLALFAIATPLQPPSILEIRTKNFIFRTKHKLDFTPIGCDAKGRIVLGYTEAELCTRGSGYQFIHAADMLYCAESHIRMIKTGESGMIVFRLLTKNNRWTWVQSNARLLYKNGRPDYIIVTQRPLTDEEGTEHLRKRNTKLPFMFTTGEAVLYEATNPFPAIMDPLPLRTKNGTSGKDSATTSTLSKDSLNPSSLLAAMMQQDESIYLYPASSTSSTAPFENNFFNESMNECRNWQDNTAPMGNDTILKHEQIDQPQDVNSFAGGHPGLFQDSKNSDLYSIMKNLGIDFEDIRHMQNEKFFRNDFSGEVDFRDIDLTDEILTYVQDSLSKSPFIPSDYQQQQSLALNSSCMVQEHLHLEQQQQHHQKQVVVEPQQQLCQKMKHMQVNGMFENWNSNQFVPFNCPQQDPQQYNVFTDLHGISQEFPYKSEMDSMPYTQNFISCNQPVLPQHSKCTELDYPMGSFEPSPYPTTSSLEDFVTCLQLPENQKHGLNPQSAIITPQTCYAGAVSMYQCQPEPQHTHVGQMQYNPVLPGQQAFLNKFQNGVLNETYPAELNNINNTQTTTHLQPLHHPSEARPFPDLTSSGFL
Nature of the data set: AhR activation, AZ-AHR (stably co-transfected HepG2) reporter cells. On the set-up: endogenous in cells; host or cells: AZ-AHR (HepG2). It is filed as cell-based. Conditions: to a much lesser extent than FKK 2 and 9; FIG. 6B. On the procedure: as §1
All the synthesized compounds and intermediates were tested for their potential to activate PXR and/or AhR via luciferase assays. The PXR activation assays were performed by co-transfecting full-length expressing human PXR plasmid (91) and p3A4 luciferase reporter (92) in LS180 or Caco-2 cells. AhR activation conducted using stably co-transfected HepG2 reporter cells as previously described (93). […] With the exception of FKK6, there was no significant inhibition of TCDD-induced AhR activation. […] Independent verification of AhR activity of randomly selected compounds—FKK 5, 6 and 9—was performed in a separate laboratory (GHP). Nuclear receptor selectivity was assessed for FKK compounds for GR, ADR, TR and AR using cell-based luciferase assays previously described (93-102). There was no observed biologically significant (>2-fold) induction of nuclear receptor activity (FIG. 6C). RXR ligand displacement is only significant for FKK1 and FKK8 (FIG. 6D).

Regarding `O=S(=O)(c1ccccc1)n1c(C(O)Cc2cc3ccccc3[nH]2)cc2ccccc21` (stereo not shown) [FKK8], the “CYP3A4 mRNA induction” value in data set [1] came to 1.5 fold. The “rifampicin-dependent PXR antagonism (inhibition)” value at PXR is “rifampicin-dependent PXR antagonism (inhibition)”. The RXR ligand displacement result with RXR is given as “significant”. Also, the AhR activation profile result at AhR is reported as “variable degrees of dose-dependent AhR activation”.
